Reference: PMC8145107 (Pharmaceutics, 2021)

Columns and labels:
[1] = system: PC9 cells; test: MTT viability assay, PC9; format: cell-based; conditions: Homo sapiens, PC-9, 24 h
Method: (§1) The human NSCLC cell lines of NCI-H460, A549, HCC827, PC9, NCI-H1650, and NCI-H1975 were obtained from the American Type Culture Collection (Rockville, MD, USA). Cells were cultured in RPMI 1640 medium containing 10% FBS, 2 mmol/L L-glutamine, and 100 units/mL of penicillin and streptomycin and maintained at 37 °C in a humidified incubator containing 5% CO2.
(§2) Cell viability against gefitinib-, cisplatin-, and NA49-induced toxicity was determined using an MTT (Amersham Pharmacia Biotech) assay in 96-well plates. […] Next, cells were incubated with 100 µL of 5 mg/mL 3-(4,5-dimethylthiazol-2-yl)-2,5-diphenyltetrazolium bromide (Sigma Aldrich, M5655) for 2 h. After the MTT mixture was removed, 100 µL of DMSO was added to each well, and absorbance at 540 nm was measured using an ELISA plate reader (TECAN, Twinfinite PRO).

[2] = system: A549 cells; test: Cell death by PI staining / flow cytometry, A549; format: cell-based, human; conditions: PI staining, CompuSyn
Method: Cells were plated in 6-well culture plates at a density of 1 × 10^5 cells/well. Compounds were applied to the cells immediately after seeding. When cells were harvested, cells were washed once with 1× phosphate-buffered saline (PBS), dissociated using Trypsin-EDTA, and centrifuged at 13,000 rpm for 3 min at 4 °C. Next, 1 mL of 1× PBS was added to wash the pellet again. Finally, 1 mL of 1× PBS and 1 μg/mL of propidium iodide (PI) were added to each polystyrene round-bottom tube. Flow cytometric analysis was performed using a FACS flow cytometer (BD Bioscience). To measure cell death, 10^4 cells were counted, and PI-stained cells were analyzed. FACS analysis in accordance with the manufacturer’s instruction. […]
Table S1. CI values of NSCLC cell lines.
Cell line Combination drug NA 10 µM NA 20 µM
CI values were calculated from the data of percent inhibition of cell death by PI staining. Each CI
value was analyzed by CompuSyn software. […]

[3] = system: NCI-H1650 xenograft; test: NCI-H1650 tumor xenograft in mice; format: in vivo, NOD-SCID mice; conditions: NA49 20 mg/kg IP every other day + Gef 5 mg/kg IP
Method: NCI-H460 single-cell suspension (1 × 10^6 cells) was injected subcutaneously into the hind legs of 6-week-old BALB/c nude mice (Orientbio, Korea). […] NCI-H1650 single-cell suspension (1 × 10^7 cells) was injected subcutaneously into the hind leg of 6-week-old NOD-SCID mice (Koatech, Korea). When tumors reached a minimal volume of 150 mm^3, xenograft mice were treated 7 times with J2 or NA49 by local regional application with or without gefitinib (5 mg/kg) by IP injection. For this, J2 or NA49 (20 mg/kg) was injected by IP every two days, and gefitinib was injected every three days. Tumor volumes were determined according to the formula (L × l^2)/2, by measuring tumor length (L) and width (l) with a caliper. Tumors were measured every other day and allowed to grow for 15 or 34 days. All procedures for animal experiments were in accordance with the guidelines by the Ewha Woman’s University Institutional Animal Care and Use Committee (IACUC, 18-006), Seoul, Korea.

[4] = system: NCI-H1975 cells; test: MTT viability assay, NCI-H1975; format: cell-based; conditions: Homo sapiens, 24 h
Method: as §1, §2

[5] = system: HCC827 cells; test: MTT viability assay, HCC827; format: cell-based; conditions: Homo sapiens, 24 h
Method: as §1, §2

[6] = system: NCI-H1650 cells; test: MTT viability assay, NCI-H1650; format: cell-based; conditions: Homo sapiens, 24 h
Method: as §1, §2

[7] = system: A549 cells; test: MTT viability assay, A549; format: cell-based; conditions: Homo sapiens, 24 h

Compound: COc1ccc(-c2coc3cc(OCC4CS4)ccc3c2=O)c(OC)c1 (centres unmarked) [NA49]
- IC50 [1]: 73 ± 2.66 µM
- CI value (combination index) ([2]; NA 10 µM + cisplatin 5 µM): 0.698
- CI value (combination index) ([2]; NA 20 µM + cisplatin 5 µM): 0.823
- Tumor growth, combination with NA49 compared to Gef alone [3]: greater reduction in tumor growth
- IC50 [4]: 89.4 ± 2.57 µM
- IC50 [5]: 64.4 ± 2.31 µM
- IC50 [6]: 62.9 ± 1.58 µM
- IC50 [7]: 62.5 ± 0.9 µM
